Data set [1] can be described thus: absorption and emission maxima of the dyes. Format: physicochemical.
Data set [2] relates to U-2 OS cells. The data set is described as follows: staining intensity of dyes in fixed U-2 OS cells, measured at the nuclear region. The conditions noted are these: dye concentration 40 uM, 30 min staining, 3.7% formaldehyde fixation. It is filed as cell-based, human. The procedure:
(§1) Cells are plated into 96-well microplates and allowed to recover for several hours or overnight. For testing effects of drugs on intracellular thiol/glutathione content, normal growth medium is removed and replaced with normal growth medium containing the test drug. The solution is incubated for several minutes to days. Growth medium is then removed and mixture is rinsed twice with DPBS with glucose/calcium/magnesium (Invitrogen #14287). The compound of Examples 1, 2 or 4 is added in DPBS (Invitrogen #14287), with a concentration up to 100 uM (typically 20 uM). The solution is incubated in a 37 degree C. incubator for 5-30 minutes (typically 30 minutes). Cells can be imaged after dye labeling.
Aldehyde fixation: The dye solution is removed and formaldehyde 3.7% (Sigma F1635, or higher quality) in DPBS (Invitrogen #14190) is added and incubated at room temperature in a fume hood for 30 minutes. […]
(§2) The material is imaged with a fluorescence microscope with filter set for Hoechst 33342 (e.g. Arrayscan VTI (Thermo Fisher Scientific/Cellomics) to acquire the images automatically).
(§3) To quantitate the images of cells stained with the Example compounds, one of the image analysis “BioApplcations” of Arrayscan VTI is used. […] Pixel intensity of the dye in cells are measured in regions (Nucleus, and/or “CytoRing”) defined by the cell identification method based on the nuclear counter stain. […]

In data set [3] the test system is U-2 OS cells. The data set is described as follows: cellular staining pattern in U-2 OS cells. It is filed as cell-based, human. The procedure:
as §1
(§4) Aldehyde fixation: The dye solution is removed and formaldehyde 3.7% (Sigma F1635, or higher quality) in DPBS (Invitrogen #14190) is added and incubated at room temperature in a fume hood for 30 minutes. The formaldehyde fixative is then removed and cells are rinsed with DPBS (Invitrogen #14190) twice. Cells are kept in PBS.
as §2

The test system of data set [4] is U-2 OS cells. In words: effect of quinone toxicants on Example 2 staining in U-2 OS cells. Format: cell-based, human. The following applies: toxicant 2 hours, high concentration 33.3 uM in steps of 1/3, Example 2 30 min, formaldehyde fixation, nuclear region. As for the experimental part: as §1, §4
To quantitate the images of cells stained with the Example compounds, one of the image analysis “BioApplcations” of Arrayscan VTI is used. The basic principle of the software is described as follows: Individual cells in an image are identified using the intensity profile of nuclear stain (e.g. TO-PRO-3). The regions derived from the identified nuclear region in individual cells is obtained (“CytoRing”). Pixel intensity of the dye in cells are measured in regions (Nucleus, and/or “CytoRing”) defined by the cell identification method based on the nuclear counter stain. Cell-level data (intensity and other attributes of each cell in all acquired images) are then reported by the computer for further processing and analysis.

Data set [5] concerns U-2 OS cells. In words: effect of BSO treatment on Example 2 staining in U-2 OS cells. It is filed as cell-based, human. The conditions noted are these: BSO 4 mM overnight, Example 2 40 uM, varied staining time, 3.7% formaldehyde fixation, nuclear region. The procedure: as §1, §4, §3
Data set [6] deals with Clone 9 cells (Rat liver cells). The data set is described as follows: effect of DEM treatment on Clone 9 cells, Example 2 multiplexed with YOYO-1. Format: cell-based. The following applies: DEM 2 hours, at higher concentration of DEM. As for the experimental part: Cells are plated into 96-well microplates and allowed to recover for several hours or overnight. For testing effects of drugs on intracellular thiol/glutathione content, normal growth medium is removed and replaced with normal growth medium containing the test drug. The solution is incubated for several minutes to days. Growth medium is then removed and mixture is rinsed twice with DPBS with glucose/calcium/magnesium (Invitrogen #14287). The compound of Examples 1, 2 or 4 is added in DPBS (Invitrogen #14287), with a concentration up to 100 uM (typically 20 uM). The solution is incubated in a 37 degree C. incubator for 5-30 minutes (typically 30 minutes). Cells can be imaged after dye labeling. Aldehyde fixation: The dye solution is removed and formaldehyde 3.7% (Sigma F1635, or higher quality) in DPBS (Invitrogen #14190) is added and incubated at room temperature in a fume hood for 30 minutes. The formaldehyde fixative is then removed and cells are rinsed with DPBS (Invitrogen #14190) twice. Cells are kept in PBS. To quantitate the images of cells stained with the Example compounds, one of the image analysis “BioApplcations” of Arrayscan VTI is used. […] Pixel intensity of the dye in cells are measured in regions (Nucleus, and/or “CytoRing”) defined by the cell identification method based on the nuclear counter stain. […]

Data set [7] has as its system U-2 OS cells. The data set is described as follows: SDS-PAGE of labeled U-2 OS cells (+/- BSO) to identify the intracellular target of the dye. It is filed as cell-based, human. The conditions noted are these: (+/-) BSO 4 mM overnight, Example 2 40 uM for 60 min. As for the experimental part:
U-2 OS cells (ATCC HTB-96, human osteosarcoma cells) were plated in 10-cm dishes and incubated overnight in a 37 degree C. cell culture incubator. The cells were then treated with DL-Buthionine-(S,R)-sulfoximine (BSO, 4 mM in growth medium) for overnight (Control=no BSO treatment). The cells are rinsed cells 3 times with 10 mL of DPBS (Invitrogen #14287).
Labeling of cells: Example 2 (40 uM) in DPBS (Invitrogen #14287) was incubated at room temperature for 1 hour. The dye solution was removed and cells rinsed with DPBS (Invitrogen #14287) twice. The cells were scraped off the dish in the presence of DPBS and transferred to a 15 mL conical tube. The cells were pelleted by centrifugation—(5 min. at 5000 rpm, Centrific centrifuge, Fisher Scientific) and resuspended in DPBS, followed by pelleting cells by centrifugation for 5 min at 1000×g. The cells were resuspended in 170 μl DPBS and, to one half, 1 μl Protease Inhibitor (Sigma, P8340) was added, followed by 2 μl 1 M NEM for 30 min and 4 μl 1 M DTT for 30 min.
Processed samples were resolved with SDS-PAGE (NuPAGE 12% Bis-Tris, Invitrogen, NP0342BOX) run in MES buffer (Invitrogen, NP0002). LDS sample buffer (NP0007) and Molecular weight standard (SeeBluePlus2 Prestained Standard LC5925) were obtained from Invitrogen. […]

“And” between values parts separate entries of the source, which are not always exact repeats. Equal entries are not always repeated. Structures can show the parent of a compound that is named as a salt.

Consider `O=c1cc(CCl)c2cc3c4c(c2o1)CCCN4CCC3` [Example 1, 2,3,6,7-tetrahydro-9-chloromethyl-1H,5H-quinolizino(9,1-gh)coumarin], for which, in data set [1] (in methanol), the absorption maximum came to 405 nm and the emission maximum turned out to be 493 nm. The “staining intensity (brightness) relative to comparator dyes” value in the data set with U-2 OS cells [2] was “brighter than CMAC and mBCl”. The cellular staining pattern result in the data set with U-2 OS cells [3] was “prominent in nuclear area and diffuse stain in the cytoplasm, with low staining in the cell periphery”.
Turning to `O=C1C=CC(=O)c2ccccc21` [NQ, 1,4-naphthoquinone], in the data set on U-2 OS cells [4], the “effect on Example 2 staining intensity” value is given as “decrease of staining at high toxicant concentrations”.
Same read-out and setting: the value for `CC1=CC(=O)c2ccccc2C1=O` [MNQ, 2-methyl-1,4-naphthoquinone] was “decrease of staining at high toxicant concentrations”.
Take `CCCCS(=N)(=O)CCC(N)C(=O)O` (racemic) [BSO, DL-Buthionine-(S,R)-sulfoximine]: the “effect on Example 2 staining intensity” value with U-2 OS cells [5] is “reduction of Example 2 staining”.
With `O=C1C=CC(=O)C=C1` [BQ, 1,4-benzoquione], the “effect on Example 2 staining intensity” value in the data set on U-2 OS cells [4] is reported as “decrease of staining at high toxicant concentrations”.
Turning to `COC(=O)/C=C\C(=O)OC` [DEM, Dimethyl maleate], the “effect on Example 2 intensity” value in data set [6] (Example 2 40 uM 30 min) is reported as “decrease of Example 2 signal (left shift)”. Besides, the “effect on YOYO-1 intensity” value in data set [6] (YOYO-1 1 uM 30 min) is recorded as “increase of YOYO-1 signal (up shift)”.
In data set [1] (in water), `N[C@H](CCC(=O)N[C@H](CSCc1cc(=O)oc2c3c4c(cc12)CCCN4CCC3)C(=O)NCC(=O)O)C(=O)O` [Example 3, glutathione adduct of 2,3,6,7-tetrahydro-9-bromomethyl-1H,5H-quinolizino(9,1-gh)coumarin] returned an absorption maximum of 408 nm and an emission maximum of 512 nm.
For the compound `O=c1cc(CBr)c2cc3c4c(c2o1)CCCN4CCC3` [Example 2, 2,3,6,7-tetrahydro-9-bromomethyl-1H,5H-quinolizino(9,1-gh)coumarin], in data set [1] (in methanol), the absorption maximum is 408 nm and 413 nm; the emission maximum is 497 nm and 515 nm. Moreover, the “staining intensity (brightness) relative to comparator dyes” value in the data set with U-2 OS cells [2] is “brighter than Example 1”. The major intracellular target entry in the data set with U-2 OS cells [7] was “Glutathione (GSH)”. Besides, in the data set on U-2 OS cells [3], the cellular staining pattern result was “prominent in nuclear area and diffuse stain in the cytoplasm, with low staining in the cell periphery”.

The values above are taken from patent US8981100B2, “Use of novel coumarins as glutathione and thiol labels” (Life Technologies Corporation, priority 2007, dated 2015).
